How the values were obtained:
Test in all cases: in vitro susceptibility, MIC by mini broth dilution
Assay type in all cases: cell-based
[1] = tested on: Staphylococcus aureus CVCC26003; details: strain CVCC26003
Protocol: (§1) in vitro tests of susceptibility of the compounds according to the present disclosure against bacterial strains commonly used in laboratories. In accordance with the Performance Standards for Antimicrobial Disk Susceptibility Tests: Approved Standard published by the US National Committee for Clinical Laboratory Standards, the antibacterial activities of compounds prepared according to examples 5 to 187 were tested. The MICs (minimum inhibitory concentration) of the medicaments prepared according to the examples on the following bacterial strains were measured through mini broth dilution technique. Staphylococcus aureus CVCC26003, Streptococcus equines CVCC556. Actinobacillus pleuropneumoniae CVCC262, Haemophilus parasuis, and Pasteurella multocida CVCC399, which were purchased from the Control Institute of Veterinary Bioproducts and Pharmaceuticals, China. 4.1.1 Culture Medium for Staphylococcus aureus CVCC26003 Liquid culture medium: CAMHB. […] Solid culture medium: NINA prepared according to the specification of the final product. The strains were taken out of a refrigerator at −20° C. to be revived, and were spreaded by streaking on the solid culture medium with an inoculating loop. The inoculated culture medium was cultured at 35° C. in a constant temperature incubator for 20 h. […] were selected from a well-grown culture plate and streaked on the solid culture medium. The inoculated culture medium was cultured at 35° C. in the constant temperature incubator for 20 h. […] A 96-well plate was used, and 100 μl of DMSO was added into each of wells 2 to 11, and 200 μl of ready-prepared medicament solution was added into the 1st well, 100 μl of the medicament solution was extracted from the 1st well and added into the 2nd well. Double dilution was performed until the 11th well, thereby forming 11 gradients. In this case, compound of parent plate was prepared. 3 μl of double diluted medicament solution was extracted with a 12-channel pipettor and added into wells 1-11 of a new disposable 96-well culture plate. The 12th well thereof is a control well. For each medicament, there are two adjacent rows which are parallel. The transferred compound plate was reserved for later use. […] The dilution ratio was recorded, and the bacterial liquid for the tests was diluted according to the recorded dilution ratio. Subsequently, the bacterial suspension and the liquid culture medium were diluted in the proportion of 1:200. The diluted solution was reserved for later use.

[2] = tested on: Actinobacillus pleuropneumoniae CVCC262; details: strain CVCC262
Protocol: as §1, with “China. 4.1.2” for “China. 4.1.1”, “Culture Media” for “Culture Medium”, “for the Rest Four Bacterial Strains.” for “for Staphylococcus aureus CVCC26003”, “medium:” for “medium: CAMHB.”, “medium: […]” for “medium: NINA prepared according to the specification of the final product.”

[3] = tested on: Haemophilus parasuis
Protocol: as §1, with “China. 4.1.2” for “China. 4.1.1”, “Culture Media” for “Culture Medium”, “for the Rest Four Bacterial Strains.” for “for Staphylococcus aureus CVCC26003”, “medium:” for “medium: CAMHB.”, “medium: […]” for “medium: NINA prepared according to the specification of the final product.”

[4] = tested on: Pasteurella multocida CVCC399; details: strain CVCC399
Protocol: as §1, with “China. 4.1.2” for “China. 4.1.1”, “Culture Media” for “Culture Medium”, “for the Rest Four Bacterial Strains.” for “for Staphylococcus aureus CVCC26003”, “medium:” for “medium: CAMHB.”, “medium: […]” for “medium: NINA prepared according to the specification of the final product.”

[5] = tested on: Streptococcus equines CVCC556; details: strain CVCC556
Protocol: as §1, with “China. 4.1.2” for “China. 4.1.1”, “Culture Media” for “Culture Medium”, “for the Rest Four Bacterial Strains.” for “for Staphylococcus aureus CVCC26003”, “medium:” for “medium: CAMHB.”, “medium: […]” for “medium: NINA prepared according to the specification of the final product.”

| MIC values, Staphylococcus aureus CVCC26003 [1] | MIC values, Actinobacillus pleuropneumoniae CVCC262 [2] [ug/mi] | MIC values, Haemophilus parasuis [3] | MIC values, Pasteurella multocida CVCC399 [4] | MIC values, Streptococcus equines CVCC556 [5] | Structure (SMILES) |
| --- | --- | --- | --- | --- | --- |
| 0.5 ug/mi | 32 | ≦0.25 ug/mi | ≦0.25 ug/mi | ≦0.25 ug/mi | CC[C@H]1OC(=O)[C@H](C)[C@@H](O[C@H]2C[C@@](C)(OC)[C@](O)(CNCc3cccnc3)[C@H](C)O2)[C@H](C)[C@@H](O[C@@H]2O[C@H](C)C[C@H](N(C)C)[C@H]2O)[C@](C)(O)C[C@@H](C)NC[C@H](C)[C@@H](O)[C@]1(C)O [syzx-21, (2R,3S,4R,5S,8R,10R,11R,12S,13S,14R)-13-[(2,6-dideoxy-3-C-methyl-3-O-methyl-4-C-[(3-pyridinylmethylamino)methyl]-α-L-ribopyranosyl)oxy]-2-ethyl-3,4,10-trihydroxy-3,5,8,10,12,14-hexamethyl-11-[[3,4,6-trideoxy-3-(dimethylamino)-β-D-xylo-hexopyranosy]oxy]-1-oxa-7-azacyclopentadecan-15-one] |
| 1 ug/mi | 8 | ≦0.25 ug/mi | 0.5 ug/mi | 0.5 ug/mi | CCOCCCNCC1(O)C(C)OC(OC2C(C)C(=O)OC(CC)C(C)(O)C(O)C(C)CNC(C)CC(C)(O)C(OC3OC(C)CC(N(C)C)C3O)C2C)CC1(C)OC [syzx-22, (2R,3S,4R,5S,8R,10R,11R,12S,13S,14R)-13-[(2,6-dideoxy-3-C-methyl-3-O-methyl-4-C-[(3-ethoxypropyl)amino)methyl]-α-L-ribopyranosyl)oxy]-2-ethyl-3,4,10-trihydroxy-3,5,8,10,12,14-hexamethyl-11-[[3,4,6-trideoxy-3-(dimethylamino)-β-D-xylo-hexopyranosy]oxy]-1-oxa-7-azacyclopentadecan-15-one] |
| 0.5 ug/mi | 4 | ≦0.25 ug/mi | 0.5 ug/mi | ≦0.25 ug/mi | CC[C@H]1OC(=O)[C@H](C)[C@@H](O[C@H]2C[C@@](C)(OC)[C@](O)(CNCc3ccccc3OC)[C@H](C)O2)[C@H](C)[C@@H](O[C@@H]2O[C@H](C)C[C@H](N(C)C)[C@H]2O)[C@](C)(O)C[C@@H](C)NC[C@H](C)[C@@H](O)[C@]1(C)O [syzx-27] |
| 1 ug/mi | 16 | 0.5 ug/mi | 2 ug/mi | 0.5 ug/mi | CC[C@H]1OC(=O)[C@H](C)[C@@H](O[C@H]2C[C@@](C)(OC)[C@](O)(CNCCNC)[C@H](C)O2)[C@H](C)[C@@H](O[C@@H]2O[C@H](C)C[C@H](N(C)C)[C@H]2O)[C@](C)(O)C[C@@H](C)NC[C@H](C)[C@@H](O)[C@]1(C)O [syzx-29] |
| ≦0.25 ug/mi | 1 | ≦0.25 ug/mi | ≦0.25 ug/mi | ≦0.25 ug/mi | CC[C@H]1OC(=O)[C@H](C)[C@@H](O[C@H]2C[C@@](C)(OC)[C@](O)(CNCc3ccc(F)cc3F)[C@H](C)O2)[C@H](C)[C@@H](O[C@@H]2O[C@H](C)C[C@H](N(C)C)[C@H]2O)[C@](C)(O)C[C@@H](C)NC[C@H](C)[C@@H](O)[C@]1(C)O [syzx-31] |
| 0.5 ug/mi | 0.5 | 0.25 ug/mi | 1 ug/mi | 0.25 ug/mi | CC[C@H]1OC(=O)[C@H](C)[C@@H](O[C@H]2C[C@@](C)(OC)[C@](O)(CNc3ccc(Cl)nn3)[C@H](C)O2)[C@H](C)[C@@H](O[C@@H]2O[C@H](C)C[C@H](N(C)C)[C@H]2O)[C@](C)(O)C[C@@H](C)NC[C@H](C)[C@@H](O)[C@]1(C)O [syzx-32, (2R,3S,4R,5S,8R,10R,11R,12S,13S,14R)-13-[(2,6-dideoxy-3-C-methyl-3-O-methyl-4-C-[(6-chloro-pyridazin-3-yl-amino)-methyl]-α-L-ribopyranosyl)oxy]-2-ethyl-3,4,10-trihydroxy-3,5,8,10,12,14-hexamethyl-11-[[3,4,6-trideoxy-3-(dimethylamino)-β-D-xylo-hexopyranosy]oxy]-1-oxa-7-azacyclopentadecan-15-one] |
| 8 ug/mi | 8 | 4 ug/mi | 16 ug/mi | 0.5 ug/mi | CC[C@H]1OC(=O)[C@H](C)[C@@H](O[C@H]2C[C@@](C)(OC)[C@](O)(CNC(C)CCc3ccccc3)[C@H](C)O2)[C@H](C)[C@@H](O[C@@H]2O[C@H](C)C[C@H](N(C)C)[C@H]2O)[C@](C)(O)C[C@@H](C)NC[C@H](C)[C@@H](O)[C@]1(C)O (stereo partly drawn) [syzx-34, (2R,3S,4R,5S,8R,10R,11R,12S,13S,14R)-13-[(2,6-dideoxy-3-C-methyl-3-O-methyl-4-C-[[(1-methyl-3-phenyl)propyl-amino]-methyl]-α-L-ribopyranosyl)oxy]-2-ethyl-3,4,10-trihydroxy-3,5,8,10,12,14-hexamethyl-11-[[3,4,6-trideoxy-3-(dimethylamino)-β-D-xylo-hexopyranosy]oxy]-1-oxa-7-azacyclopentadecan-15-one] |
| 1 ug/mi | 32 | 0.5 ug/mi | 0.5 ug/mi | 0.5 ug/mi | CC[C@H]1OC(=O)[C@H](C)[C@@H](O[C@H]2C[C@@](C)(OC)[C@](O)(CNc3ccnc(Cl)c3)[C@H](C)O2)[C@H](C)[C@@H](O[C@@H]2O[C@H](C)C[C@H](N(C)C)[C@H]2O)[C@](C)(O)C[C@@H](C)NC[C@H](C)[C@@H](O)[C@]1(C)O [syzx-38] |

| Structure (SMILES) | MIC values, Staphylococcus aureus CVCC26003 [1] | MIC values, Actinobacillus pleuropneumoniae CVCC262 [2] [ug/mi] | MIC values, Haemophilus parasuis [3] | MIC values, Pasteurella multocida CVCC399 [4] | MIC values, Streptococcus equines CVCC556 [5] |
| --- | --- | --- | --- | --- | --- |
| CC[C@H]1OC(=O)[C@H](C)[C@@H](O[C@H]2C[C@@](C)(OC)[C@](O)(CNC(=O)C(F)(F)F)[C@H](C)O2)[C@H](C)[C@@H](O[C@@H]2O[C@H](C)C[C@H](N(C)C)[C@H]2O)[C@](C)(O)C[C@@H](C)NC[C@H](C)[C@@H](O)[C@]1(C)O [syzx-37, (2R,3S,4R,5S,8R,10R,11R,12S,13S,14R)-13-[(2,6-dideoxy-3-C-methyl-3-O-methyl-4-C-[[2,2,2-trifluoroacetyl-amino]-methyl]-α-L-ribopyranosyl)oxy]-2-ethyl-3,4,10-trihydroxy-3,5,8,10,12,14-hexamethyl-11-[[3,4,6-trideoxy-3-(dimethylamino)-β-D-xylo-hexopyranosy]oxy]-1-oxa-7-azacyclopentadecan-15-one] | 0.5 ug/mi | 32 | 0.5 ug/mi | 1 ug/mi | ≦0.25 ug/mi |

— patent publication US9765105B2, “Macrolide compound” (Pulike Biological Engineering, Inc., priority 2013, dated 2017)
